Assay results taken from PubChem BioAssay (NCI).
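96-well plates; 48 h exposure; 5 concentrations. Endpoints by linear interpolation between flanking doses. Not reached: highest tested concentration assigned. GI50: concentration for 50% inhibition of growth. TGI: total growth inhibition.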

Legend:
Experiment in all cases: DTP human tumour cell line panel, 48 h
[1] = tested on: IGROV1 ovarian
[2] = tested on: M14 melanoma
[3] = tested on: SF-268 CNS
[4] = tested on: EKVX NSCLC
[5] = tested on: HOP-92 NSCLC
[6] = tested on: HCT-116 colon
[7] = tested on: OVCAR-3 ovarian
[8] = tested on: NCI-H23 lung
[9] = tested on: SN12C renal
[10] = tested on: NCI-H226 lung

Compound	TGI [1] [µM]	TGI [2] [µM]	TGI [3] [µM]	TGI [4] [µM]	TGI [5] [µM]	TGI [6] [µM]	TGI [7] [µM]	TGI [8] [µM]	TGI [9] [µM]	TGI [10] [µM]	GI50 [1] [µM]	GI50 [3] [µM]	GI50 [4] [µM]	GI50 [5] [µM]	GI50 [6] [µM]	GI50 [7] [µM]	GI50 [8] [µM]	GI50 [9] [µM]	GI50 [2] [µM]	GI50 [10] [µM]
Cc1ccc2ccc3ccc(C)nc3c2n1	> 100	> 100	> 100	> 100	> 100	> 44.7	> 100	> 100	> 100	> 100	–	–	–	–	–	–	–	–	–	–
Nc1cccc2c1C1=NNC(=O)CC1C2 (stereo not drawn)	> 100	–	> 100	> 100	4.46	> 100	> 100	> 20.3	> 100	> 100	–	–	–	–	–	–	–	–	–	–
CNCCCNC1(c2cc3ccccc3s2)CCCCC1	25.5	8.06	25.3	26.4	14.8	14.9	25.4	30.6	18.4	36.6	–	–	–	–	–	–	–	–	–	–
N#Cc1c(-c2cccc(Cl)c2)cc(-c2ccc(Cl)cc2)nc1N	24.4	36.9	37.7	45	25.3	34.1	63.9	38.2	34.4	34.8	–	–	–	–	–	–	–	–	–	–
CC(C)(O)CO/N=C1\C(c2c(O)[nH]c3ccccc23)=Nc2ccccc21	13.9	> 43.3	> 60	> 36.3	> 91.6	> 100	5.95	12.7	> 80.1	–	–	–	–	–	–	–	–	–	–	–
Cc1c2cc[n+](C)cc2c(C)c2c1[nH]c1ccc(Cl)cc12	38.2	40.6	0.831	14.1	26.5	32.2	22.6	9.12	3.42	4.57	–	–	–	–	–	–	–	–	–	–
CC1=NN(c2cccc(Cl)c2)C(=N/c2nc3ccccc3s2)/C1=C\c1cccs1	> 100	> 100	> 100	> 100	> 100	> 100	45.5	61.8	–	> 100	–	–	–	–	–	–	–	–	–	–
C[C@H](N[C@H]1CCC[C@]1(O)C#Cc1ccc2c(c1)OCO2)c1ccccc1	> 25	> 25	> 25	> 25	> 25	–	–	> 25	–	> 25	–	–	–	–	–	–	–	–	–	–
C[C@@H](CO)C1=CC(C#C[Si](C)(C)C)N(C(=O)Oc2ccccc2)c2ccccc21 (stereo partly drawn)	36.4	35.6	39	53.7	24.6	29	26.9	23.1	30.9	44	–	–	–	–	–	–	–	–	–	–
c1ccc2sc(C3(N4CCC5(CC4)OCCO5)CCCCC3)cc2c1	> 100	> 100	> 100	> 100	> 100	> 100	> 100	> 100	> 100	> 100	–	–	–	–	–	–	–	–	–	–
C=Cc1cc(OC)c2c(c1)c(=O)oc1c2cc(OC)c2c(O)ccc(C3OC(C)C(O)C(C)(O)C3O)c21 (stereo not drawn)	1.08	0.00162	–	–	0.24	–	–	–	–	–	0.00143	0.000148	0.000589	0.000215	0.000308	0.00181	0.000113	0.00149	–	–
Cc1c(NC(=O)c2cc([N+](=O)[O-])cc([N+](=O)[O-])c2)c(=O)n(-c2ccccc2)n1C	> 100	> 100	> 100	–	> 100	> 100	> 100	> 100	> 100	> 100	–	–	–	–	–	–	–	–	–	–
O=C(Nc1cccc([N+](=O)[O-])c1)C(=O)C(C(=O)c1ccccc1F)C1OC(=O)C2C=CC=CC21 (stereo not drawn)	> 100	> 100	70.6	> 100	> 100	48.3	–	> 100	> 100	52.9	–	–	–	–	–	–	–	–	–	–
N#CCCOCN(CO)c1nc(N(CO)COCCC#N)nc(N(CO)COCCC#N)n1	> 100	45.1	45.1	93.7	45.8	63.8	59.3	71.5	44.2	53.1	–	–	–	–	–	–	–	–	–	–
O=C(Nc1sccc1S(=O)(=O)c1ccc(Cl)cc1)c1ccccc1	> 100	> 100	> 100	> 100	> 100	> 100	> 100	> 100	> 100	> 100	–	–	–	–	–	–	–	–	–	–
O=C1/C(=C/c2ccc(Cl)cc2)N=C(c2ccccc2)N1c1nc2c(Cl)cc(Cl)cc2s1	> 100	> 100	> 100	68.9	71.6	50.8	50.9	–	57.8	–	–	–	–	–	–	–	–	–	–	–
COc1cc2c(cc1OC)C1Cc3cc(OC)c(OC)cc3C(C2)O1	> 100	> 100	> 100	> 100	> 100	> 100	> 100	> 100	> 100	> 100	–	–	–	–	–	–	–	–	–	–
O=C(NCCNc1nccc(-c2c(-c3cccc(O)c3)nc3sccn23)n1)Nc1cccc(C(F)(F)F)c1	13.1	3.39	14.6	36.6	9.38	11.5	22.7	32.5	20	28.5	3.48	3.45	4.16	2.19	3.56	5.52	4.62	3.42	1.79	9.99
CC(=O)OC[C@@]1(C)[C@@H]2[C@@H]3[C@@]4(CO[C@]3(C)C(=O)[C@@]3(O)C[C@H](C)[C@H](OC(C)=O)[C@@H]3[C@H]4OC(C)=O)[C@H](OC(=O)c3ccccc3)C[C@@H]21	> 100	> 100	> 100	> 100	> 100	> 100	> 100	> 100	> 100	> 100	–	–	–	–	–	–	–	–	–	–
CNS(=O)(=O)c1ccc2[nH]c(O)c(C3=Nc4ccccc4C3=O)c2c1	> 100	> 100	> 100	> 100	–	> 100	> 100	> 100	> 100	> 100	–	–	–	–	–	–	–	–	–	–
COc1cc(NC(=O)CSc2nc3ccccc3c(=O)n2CCc2ccccc2)cc(OC)c1OC	4.46	> 100	43.9	> 100	3.44	–	–	–	–	7.16	1.93	3.55	4.8	0.587	–	–	–	–	5.49	2.14
CCCC1=C(C(=O)OCC)C(c2ccccc2OC)C(C#N)=C(N)O1 (stereo not drawn)	36.4	> 100	> 100	> 100	> 100	> 100	> 100	> 100	41.4	58.2	14.7	37.8	> 100	37.7	31.8	67.1	> 100	16.6	34.2	22.5
NC(=O)Nc1ccc(C(=O)NCCCNC(=O)c2ccc(NC(N)=O)cc2)cc1	> 100	> 100	> 100	> 100	> 100	> 100	–	> 100	–	> 100	–	–	–	–	–	–	–	–	–	–
CSc1ccc(-c2cc(-c3nc4ccccc4[nH]3)nc(N)c2C#N)cc1	55.9	33.8	61.6	> 100	42.9	42.7	43.1	99.5	> 100	79.5	–	–	–	–	–	–	–	–	–	–
O=C1C(c2c(O)[nH]c3ccccc23)=Nc2ccc(Br)cc21	> 100	> 100	90.2	61.1	50.4	> 100	> 100	> 100	> 100	68.1	–	–	–	–	–	–	–	–	–	–
Cc1nc2c(O)cc3c4c(n(Cc5ccccc5)c3c2nc1C)C(=O)CCC4	–	> 100	50.9	> 100	74	> 100	83.2	> 100	> 100	> 100	–	–	–	–	–	–	–	–	–	–
CC(=O)N1CC(=O)NC1=S	> 100	> 100	> 100	> 100	> 100	> 100	> 100	> 100	> 100	> 100	–	–	–	–	–	–	–	–	–	–
O=C1C(=c2cc3c(c4ccccc24)=NC24CCCCC2C(c2ccccc2)C=C(c2ccccc2)N34)C(=O)c2ccccc21 (stereo not drawn)	> 100	> 100	> 100	> 100	> 100	> 100	> 100	–	> 100	> 100	–	–	–	–	–	–	–	–	–	–
